From paper PMC4431178, “Molecular basis of sugar recognition by collectin-K1 and the effects of mutations associated with 3MC syndrome” (BMC Biology, 2015)

What was measured:
CL-K1 [1] = biological target: T1, CL-K1 (Homo sapiens, UniProt Q9BWP8); assay: Glycan-array screen with fluorophore-labelled CL-K1; type: binding; parameters: For full-length protein, the cDNA was cloned into the polylinker region of expression vector pED; made in house; host or cells: Chinese hamster ovary cells; conditions: for glycan-array binding by CL-K1 / relative fluorescence, With Ca^2+: with Ca2+; for relative fluorescence, With Ca^2+ / relative fluorescence, Without Ca^2+: glycan array, ± SE from six replicates; for relative fluorescence, With Ca^2+: CL-K1 200 μg/ml; for relative fluorescence, Without Ca^2+: without Ca2+
Text: To examine binding to individual glycans, fluorophore-labelled CL-K1 was used to probe a broad screen of mammalian carbohydrates using the Core H Glycan array technology facility at The Consortium for Functional Glycomics. […] The relative fluorescence signal provides an accurate indication of the order of affinities. Consistent with the glycoprotein data, the best ligands were all high-mannose oligosaccharides (Figure 2A and Additional file 1), but not all of these were recognised. Mammalian high-mannose structures comprise a Man5 core attached to the protein via two GlcNAc residues, with α1-2 linked sugars at the non-reducing termini (Figure 2C). CL-K1 only recognised those structures containing at least one terminal Man(α1-2)Man epitope. For example, it bound tightly to Man6, Man7, Man8 and Man9 but not to the Man5 core (ligand 310) that comprises only α1-3 and α1-6 linkages. […] This pattern of recognition is different from other collectins, such as MBL and pulmonary-surfactant protein D that typically recognise the terminal sugar alone (mannose, fucose or N-acetyglucosamine). It is also different from other C-type lectins, such as DC-SIGN or DC-SIGNR that target larger high-mannose oligosaccharides preferentially (Man5 to Man9). To quantify the differences in affinities, we compared binding to three different epitopes that all form part of a high-mannose oligosaccharide. […] Thus, CL-K1 primarily recognises the terminal disaccharide of the glycan, rather than the terminal sugar alone, explaining its unusual binding properties.
Labelled protein (70 μL) was applied to the printed surface of the microarray chip coated with natural and synthetic glycans via amino linkers. The chip was covered and incubated at room temperature in a humidified chamber for one hour. Binding was detected by measuring the fluorescence associated with each glycan. Data are the average of six replicates.
Target sequence in this assay (Q9BWP8 26-271): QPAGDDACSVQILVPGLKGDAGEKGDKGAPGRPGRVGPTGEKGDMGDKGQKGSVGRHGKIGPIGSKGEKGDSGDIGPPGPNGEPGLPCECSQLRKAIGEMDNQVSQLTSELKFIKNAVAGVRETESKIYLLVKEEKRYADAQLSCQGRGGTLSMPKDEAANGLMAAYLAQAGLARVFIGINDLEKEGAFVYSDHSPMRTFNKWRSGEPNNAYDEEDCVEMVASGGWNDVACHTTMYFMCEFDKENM

CL-K1 [2] = biological target: T1, CL-K1; assay: Immunoblot of CL-K1 binding to immobilised glycoproteins; parameters: For full-length protein, the cDNA was cloned into the polylinker region of expression vector pED; made in house; host or cells: Chinese hamster ovary cells; conditions: biotinylated CL-K1 0.06 mg/ml, glycoproteins spotted on nitrocellulose
Procedure: (§1) Figure 1 Glycoprotein binding and complement activation by CL-K1. A) Immunoblot of CL-K1 binding to immobilised mammalian and yeast glycoproteins. B) Surface plasmon resonance of CL-K1 binding to glycoproteins. […] C3b and its breakdown products were detected by absorbance using an anti-human C3c antibody with alkaline phosphatase-conjugated goat anti-rabbit secondary antibody and p-nitrophenyl phosphate as the substrate. Protein concentrations were calculated based on the molecular masses of CL-K1 and MBL trimers (78 kDa in each case). CL-K1, collectin-K1; MBL, mannan-binding lectin.
Two-fold serial dilutions of glycoprotein (0.5 μl at a starting concentration of 2 mg/ml) were spotted on to a nitrocellulose membrane and allowed to dry for 30 minutes at room temperature. […] After washing, the membrane was incubated with Streptavidin-ALP conjugate (2ug/ml; Life Technologies Ltd (Paisley, UK)) and developed with BCIP-NBT substrate (Sigma).
Target sequence in this assay (Q9BWP8 26-271): as above

CL-K1 [3] = biological target: T1, CL-K1; assay: Inhibition of CL-K1 binding to immobilized yeast invertase by high-mannose epitopes; parameters: For full-length protein, the cDNA was cloned into the polylinker region of expression vector pED; made in house; host or cells: Chinese hamster ovary cells; conditions: relative to Man(α1-2)Man IC50 of 0.02 mM
Target sequence in this assay (Q9BWP8 26-271): as above

CL-K1 [4] = biological target: T1, CL-K1; assay: Surface plasmon resonance of CL-K1 binding to glycoproteins; parameters: For full-length protein, the cDNA was cloned into the polylinker region of expression vector pED; made in house; host or cells: Chinese hamster ovary cells; conditions: glycoprotein starting concentration 200 nM
Procedure: as §1
Target sequence in this assay (Q9BWP8 26-271): as above
CL-K1 was immobilised on the surface of a GLM sensor chip (Bio-Rad Laboratories Ltd (Hemel Hempstead, UK)) by amine coupling. Binding was measured in 10 mM Tris–HCl, pH 7.4 containing 140 mM NaCl, 2 mM CaCl2 and 0.005% Tween 20 at a flow rate of 25 μl/minute and at 25°C. The protein surface was regenerated in buffer containing 1 M NaCl and 5 mM EDTA.

CL-K1 fragment = biological target: T2, CL-K1 fragment (Homo sapiens, UniProt Q9BWP8); assay: Ca2+ binding to the CL-K1 fragment measured by intrinsic fluorescence
T2 construct: made in house
T2 sequence (Q9BWP8 116-271): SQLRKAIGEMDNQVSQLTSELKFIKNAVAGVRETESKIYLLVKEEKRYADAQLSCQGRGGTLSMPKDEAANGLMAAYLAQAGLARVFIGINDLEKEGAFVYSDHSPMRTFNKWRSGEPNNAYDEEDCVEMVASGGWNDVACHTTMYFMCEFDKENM
Procedure: (§2) Figure 4 Ca^2+ stabilises the CRDs of CL-K1. A) Fluorescence spectra of the CL-K1 fragment in different buffers. The λex was 280 nm. B) Ca^2+ binding to the CL-K1 fragment measured by fluorescence. […] C) Urea denaturation in the presence and absence of Ca^2+ (2 mM). […] Samples were separated by SDS-PAGE and gels were scanned to determine the amount of CL-K1 remaining. The amount of trypsin was 0.5% (w/w). The intensities of bands corresponding to the neck and CRD and the CRD alone were combined. A sample gel is shown in F). E) Proteolysis of CL-K1 in the presence and absence of Ca^2+. Two fold serial dilutions of trypsin were used at a starting concentration of 2% (w/w). In all experiments data are mean ± error from two separate experiments. CL-K1, collectin-K1; CRD, carbohydrate-recognition domain.
All experiments were carried out using a Fluoromax-4 (Horiba Jobin Yvon, Horiba UK Ltd (Middlesex, UK)) instrument with excitation wavelength at 280 nm, slit widths of 2 nm and emission wavelength range of 300 to 400 nm. The λex was 280 nm. Protein samples (0.5 μM) in 10 mM Tris–HCl, pH 7.4 containing 140 mM NaCl were measured in the presence of 2 mM CaCl2, 1 mM EDTA and 6 M urea.

CL-K1 [5] = biological target: T1, CL-K1; assay: Proteolysis of CL-K1 by trypsin at increasing Ca2+ concentrations; type: binding; parameters: made in house; conditions: trypsin 0.5% (w/w), read-out: apparent KD for calcium
Procedure: as §2
Target sequence in this assay (Q9BWP8 116-271): as above

complement component C3b = assay: Complement activation: C3b deposition on mannan in lectin-depleted human serum; type: biochemical; conditions: 1/100 human serum depleted of endogenous lectins
Procedure: as §1
After incubation at 37°C for one hour and washes with buffer containing 0.5% Tween-20, C3b was detected using rabbit anti-human C3c antibody (Dako UK Ltd (Ely, UK)) with alkaline phosphatase-conjugated goat anti-rabbit secondary antibody (Sigma) and p-nitrophenyl phosphate as the substrate.

[6] = tested on: Chinese hamster ovary cells; assay: Secretion of wild type and variant CL-K1s from mammalian cells (immunoblot of medium); type: cell-based; conditions: transfected CHO cells, serum-free medium, anti-CL-K1 immunoblot
Text: Figure 5 No secretion of variant CL-K1s containing mutations associated with 3MC syndrome. A) Structure of the CRD of CL-K1 showing the position of mutations associated with 3MC syndrome. Secondary structure features are labelled based on the structure of MBL [38]. Polar interactions are indicated by dotted lines. B) Secretion of wild type and variant CL-K1s from mammalian cells. […] Secreted CL-K1 was detected using rabbit polyclonal anti-CL-K1 antibodies. Purified wild-type CL-K1 (approximately 20 ng) was used as a positive control. CL-K1, collectin-K1; CRD, carbohydrate-recognition domain; MBL, mannan-bindng lectin; 3MC, Carnevale, Mingarelli, Malpuech and Michels.
For full-length protein, the cDNA was cloned into the polylinker region of expression vector pED [29] and protein was produced in Chinese hamster ovary cells and purified by affinity chromatography on mannose-Sepharose columns as described previously for MBL [28, 30]. […] Cells were grown in Power Prime broth (Molecular Dimensions Limited (Newmarket, UK)), induced during mid-log phase with IPTG (1 mM), and harvested after growth at 37°C for an additional 16 hours.

yeast invertase = assay: Binding of biotinylated invertase to full length CL-K1 and trimeric fragments; conditions: plates coated with CL-K1 protein
Text: Figure 6 Characterisation of CL-K1 fragments containing disease-associated mutations. […] The elution positions of conalbumin (75 kDa), ovalbumin (44 kDa) and ribonuclease A (13.7 kDa) are indicated. […] Bottom, None of the three CL-K1 variants interacts with the column, even in the presence of Ca^2+. B) CD spectra of the wild-type CL-K1 fragment and the disease-associated CL-K1 variants. […] Values are the mean ± error from duplicate measurements. Tighter binding of the full-length protein is due to its increased avidity. CL-K1, collectin-K1; EDTA, ethylenediaminetetraacetic acid.
After washing, wells were incubated with 1:2000 dilution of goat peroxidase conjugated anti-biotin antibody (Sigma) and developed with tetramethylbenzidine (Sigma). Absorbance was measured at 450 nm.

Compound	relative fluorescence, With Ca^2+ (CL-K1 [1])	relative fluorescence, Without Ca^2+ (CL-K1 [1])	other results
NCCCCCO[C@H]1O[C@H](CO[C@H]2O[C@H](CO[C@H]3O[C@H](CO)[C@@H](O)[C@H](O)[C@@H]3O[C@H]3O[C@H](CO)[C@@H](O)[C@H](O)[C@@H]3O)[C@@H](O)[C@H](O[C@H]3O[C@H](CO)[C@@H](O)[C@H](O)[C@@H]3O[C@H]3O[C@H](CO)[C@@H](O)[C@H](O)[C@@H]3O)[C@@H]2O)[C@@H](O)[C@H](O[C@H]2O[C@H](CO)[C@@H](O)[C@H](O)[C@@H]2O[C@H]2O[C@H](CO)[C@@H](O)[C@H](O)[C@@H]2O[C@H]2O[C@H](CO)[C@@H](O)[C@H](O)[C@@H]2O)[C@@H]1O [ligand 312, Manα1-2Manα1-2Manα1-3(Manα1-2Manα1-6(Manα1-2Manα1-3)Manα1-6)Manα-Sp9]	–	–	glycan-array binding by CL-K1 (CL-K1 [1]): bound tightly
OC[C@H]1O[C@@H](O)[C@@H](O)[C@@H](O)[C@@H]1O [compound 18]	99 ± 9	570 ± 170	–
fetuin: Bovine fetuin from Sigma-Aldrich	–	–	binding of CL-K1 on blot (CL-K1 [2]): not
CC(=O)N[C@@H]1[C@@H](O)[C@H](O)[C@@H](CO)O[C@H]1O [compound 20]	170 ± 91	535 ± 116	–
OC[C@H]1OC(O)[C@@H](O)[C@@H](O)[C@@H]1O (stereo partly shown) [mannose]	–	–	fold by which inhibition by Man(α1-2)Man is greater than for this ligand (CL-K1 [3]): > 300 fold
Invertase: yeast invertase glycoprotein from Sigma-Aldrich	–	–	binding to CL-K1 by surface plasmon resonance (CL-K1 [4]): bound tightly; binding of CL-K1 on blot (CL-K1 [2]): binding
[Ca+2] [Ca^2+]	–	–	Kd (CL-K1 fragment; read-out: KD for Ca2+ by titration): 430 µM; Hill coefficient of Ca2+ binding (CL-K1 fragment; trimeric neck+CRD fragment, intrinsic fluorescence): 2.4; Kd (CL-K1 [5]): ~1000 µM
OC[C@H]1O[C@@H](O)[C@H](O)[C@@H](O)[C@@H]1O [compound 17]	831 ± 505	4473 ± 1785	–
Mannan	–	–	binding to CL-K1 by surface plasmon resonance (CL-K1 [4]): bound tightly; binding of CL-K1 on blot (CL-K1 [2]): binding
OC[C@H]1O[C@H](O)[C@@H](O)[C@@H](O)[C@@H]1O [compound 8]	566 ± 230	1156 ± 233	–
CC1OC(O)C(O)C(O)C1O (stereo not shown) [compound 11]	546 ± 98	1922 ± 358	–
OC[C@H]1O[C@@H](O)[C@H](O)[C@@H](O)[C@H]1O [compound 16]	941 ± 308	4062 ± 774	–
OCC1OC(OCC2OC(OCC3OC(O)C(O)C(OC4OC(CO)C(O)C(O)C4O)C3O)C(O)C(OC3OC(CO)C(O)C(O)C3O)C2O)C(O)C(O)C1O (stereo not shown) [compound 310]	1000 ± 468	768 ± 303	glycan-array binding by CL-K1 (CL-K1 [1]): not
CL-K1: full-length recombinant human collectin-K1 produced in Chinese hamster ovary cells	–	–	complement activation, fold lower activity than human MBL (complement component C3b): 2.5 fold; secretion into medium [6]: secreted; binding to yeast invertase (yeast invertase): bound
OC[C@H]1O[C@H](O)[C@H](O)[C@@H](O)[C@@H]1O [compound 7]	250 ± 80	952 ± 297	–
OC[C@H]1O[C@H](O)[C@H](O)[C@@H](O)[C@H]1O [compound 6]	294 ± 167	870 ± 157	–
thyroglobulin: Bovine thyroglobulin from GE Healthcare	–	–	binding of CL-K1 on blot (CL-K1 [2]): binding
CC(=O)N[C@@H]1[C@@H](O)[C@H](O)[C@@H](CO)O[C@H]1O [compound 21]	499 ± 293	1798 ± 141	–
CC1OC(O)C(O)C(O)C1O (stereo not shown) [compound 10]	431 ± 27	1097 ± 138	–
